# Test results published in patent US6022895A, “Substituted amino compounds and their use as substances having an analgesic effect” (priority 1997, dated 2000).
# Where a name gives a salt, the structure may show the parent alone.
# Target: T1, δ opiate receptor (Rattus norvegicus, UniProt P33533)
# T1 construct: The rat brain, which was freshly prepared in each case, was homogenized; from tissue; host or cells: brain of male Wistar rats, without the cerebellum, pons and medulla oblongata (membrane homogenate)
# Assay: δ opiate receptor binding (displacement of (3H)-2-D-ala-deltorphin II, rat brain membrane homogenate)
# Set-up: species or system male Wistar rats
# Details: mean values ± standard deviations of ≥3 independent tests; 1 nmole/l (3H)-2-D-ala-deltorphin II; pH 7.4; 90 minutes at 37° C.; Ki from IC50 by Cheng-Prussoff equation
# Procedure: δ Opiate Receptor Binding Investigations
# Tests to determine the affinity of the compounds of formula (I) according to the invention for the δ opiate receptor were performed on meninx homogenates (a homogenate of the brain of male Wistar rats, without the cerebellum, pons and medulla oblongata).
# The rat brain, which was freshly prepared in each case, was homogenized for this purpose, while being cooled in ice, in 50 mmoles/l Tris-HCl (pH 7.4) and was centrifuged for 10 minutes at 5000 g and 4° C. After decanting and discarding the supernatant liquor, and taking up and homogenising the membrane sediment again in […] Tris-HCl (pH 7.4), the homogenate was subsequently centrifuged for 20 minutes at 20,000 g and 4° C. This washing step was repeated once more. Thereafter, the supernatant liquor was decanted, the membrane sediment was homogenized in cold 50 mmoles/l Tris-HCl, 20% glycerol (w/v), 0.01% bacitracin (w/v) (pH 7.4), and was frozen in aliquots until testing was performed. For the receptor binding tests, the aliquots were thawed and diluted 1:10 with the binding test buffer.
# 50 mmoles/l Tris-HCl, 5 mmoles/l MgCl2 (pH 7.4) supplemented with 0.1% (w/v) bovine serum albumin, with 1 nmole/l (^3 H)-2-D-ala-deltorphin II as the radioactive ligand, was used as the buffer in the binding test. The proportion of non-specific binding was determined in the presence of 10 μmoles/l naloxone.
# In further batches, the compounds according to the invention were added in a series of concentrations and the displacement of the radioactive ligand from its specific binding was determined. The respective triple batches were incubated for 90 minutes at 37° C. and were subsequently harvested by means of filtration through glass fiber filters (GF/B) for the determination of the radioactive ligand bound to the membrane homogenate. The radioactivity of the glass fiber filter discs was measured in a β-counter after adding a scintillator.
# The affinity of the compounds according to the invention for the δ opiate receptor was calculated by the mass action law, by means of non-linear regression, as the IC50 value. Ki values were calculated from the IC50 values using the Cheng-Prussoff equation. The Ki values are given as mean values ± standard deviations of ≥3 tests which were independent of each other.
# T1 sequence (P33533 whole entry): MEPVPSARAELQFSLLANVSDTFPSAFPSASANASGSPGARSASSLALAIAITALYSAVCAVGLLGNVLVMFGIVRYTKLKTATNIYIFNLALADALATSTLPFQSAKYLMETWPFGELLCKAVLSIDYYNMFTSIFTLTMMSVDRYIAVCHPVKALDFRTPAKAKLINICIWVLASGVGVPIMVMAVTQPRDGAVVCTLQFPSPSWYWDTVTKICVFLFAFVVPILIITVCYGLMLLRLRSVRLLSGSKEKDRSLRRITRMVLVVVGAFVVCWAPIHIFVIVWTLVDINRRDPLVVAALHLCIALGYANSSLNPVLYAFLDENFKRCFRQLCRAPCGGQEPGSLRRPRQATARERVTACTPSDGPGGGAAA
row,Structure (SMILES),Ki [nM]
1,"COc1cccc2c1CCC(CN(C)C)=C2c1ccccc1 [Example 4, (5-methoxy-1-phenyl-3,4-dihydro-naphth-2-ylmethyl)-dimethylamine hydrochloride]",517 ± 45
2,"C/C(CN(C)C)=C(\c1ccc(-c2ccccc2)cc1)c1cccc(O)c1 [Example 11b, Z-3-(1-biphenyl-4-yl-3-dimethylamino-2-methyl-propenyl)-phenol hydrochloride]",23.7 ± 1.7
3,"C=CCN(C)CC1=C(c2cccc(O)c2)c2ccccc2CCC1 [Example 10, 3-{6-[allyl-methyl-amino)-methyl]-8,9-dihydro-7H-benzocyclohepten-5-yl}-phenol hydrochloride]",679 ± 214
4,"CN(C)CC1=C(c2cccc(O)c2)c2cc(Oc3ccccc3)ccc2CC1 [Example 8, 3-(2-dimethylaminomethyl-7-phenoxy-3,4-dihydro-naphth-1-yl)-phenol hydrochloride]",25.7 ± 10.2
5,"CN(C)CC1=C(c2cccc(O)c2)c2ccccc2CC1 [Example 1, 3-(2-dimethylaminomethyl-3,4-dihydro-naphth-1-yl)-phenol hydrochloride]",55.8 ± 4.6
6,"CCN(CC)CC1=C(c2cccc(O)c2)c2ccccc2CCC1 [Example 2b, 3-(6-diethylaminomethyl-8,9-dihydro-7H-benzocyclohepten-5-yl)-phenol hydrochloride]",728 ± 146
7,"COc1cccc2c1CCC(CN(C)C)=C2c1cccc(O)c1 [Example 9a, 3-(2-dimethylaminomethyl-5-methoxy-3,4-dihydronaphth-1-yl)-phenol hydrochloride]",23.9 ± 0.9
8,"CC(CN(C)C)=C(c1cccc(O)c1)c1cccc(O)c1 [Example 11a, 3-[3-dimethylamino-1-(3-hydroxyphenyl)-2-methyl-propenyl]-phenol hydrochloride]",34 ± 5.8
9,"CN(CCc1ccccn1)CC1=C(c2cccc(O)c2)c2ccccc2CCC1 [Example 2h, 3-(6-{[methyl-(2-pyridin-2-yl-ethyl)-amino]-methyl)-8,9-dihydro-7H-benzocyclohepten-5-yl)-phenol dihydrochloride]",223 ± 86
10,"CN(C)CC1=C(c2cccc(O)c2)c2ccc3ccccc3c2CC1 [Example 2j, 3-(2-dimethylaminomethyl-3,4-dihydro-phenanthren-1-yl)-phendlydrochloride]",80.8 ± 29.7
11,"CN(CC1=C(c2cccc(O)c2)c2ccccc2CCC1)CC1CC1 [Example 2g, 3-{6-[(cyclopropylmethyl-methyl-amino)-methyl]-8,9-dihydro-7H-benzocyclohepten-5-yl}-phenol hydrochloride]",182 ± 12
12,"CN(C)CC1=C(c2cccc(O)c2)c2ccccc2CCCC1 [Example 2f, 3-(6-dimethylaminomethyl-7,8,9,10-tetrahydrobenzocycloocten-5-yl)-phenol h ydrochloride]",46.3 ± 10.1
13,"CCCN(CCC)CC1=C(c2cccc(O)c2)c2ccccc2CCC1 [Example 2c, 3-(6-di-n-propylaminomethyl-8,9-dihydro-7H-benzocyclohepten-5-yl)-phenol h ydrochloride]",294 ± 106
14,"CN(C)CC1=C(c2cccc(O)c2)c2ccc(O)cc2CC1 [Example 6, 6-dimethylaminomethyl-5-(3-hydroxy-phenyl)-7,8-dihydro-naphth-2-ol hydrochloride]",40.9 ± 6.7
15,"CN(CCc1ccccc1)CC1=C(c2cccc(O)c2)c2ccccc2CCC1 [Example 2d, 3-{6-[(methyl-phenethyl-amino)-methyl]-8,9-dihydro-7H-benzocyclohepten-5-yl}-phenol hydrochloride]",54.3 ± 8.2
16,"CN(C)CC1=C(c2cccc(O)c2)c2ccccc2C1 [Example 2i, 3-(2-dimethylaminomethyl-3H-inden-1-yl)-phenol hydrochloride]",157 ± 16
17,"COc1ccc2c(c1)CCC(CN(C)C)=C2c1ccccc1 [Example 3, (6-methoxy-1-phenyl-3,4-dihydro-naphth-2-ylmethyl)-dimethylamine hydrochloride]",456 ± 62
18,"CN(C)CC1=C(c2cccc(O)c2)c2cc(-c3ccccc3)ccc2CC1 [Example 9b, 3-(2-dimethylaminomethyl-7-phenyl-3,4-dihydronaphth-1-yl)-phenol hydrochloride]",39.3 ± 2.2
19,"CN(CC1=C(c2cccc(O)c2)c2ccccc2CCC1)Cc1ccccc1 [Example 2e, 3-{6-[(benzyl-methyl-amino)-methyl]-8,9-dihydro-7H-benzocyclohepten-5-yl}-phenol hydrochloride]",936 ± 32
20,"CN(C)CC1=C(c2cccc(O)c2)c2ccccc2CCC1 [Example 2a, 3-(6-dimethylaminomethyl-8,9-dihydro-7H-benzo-cyclohepten-5-yl)-phenol hydrochloride]",17.2 ± 4.3
21,"CCCCc1ccc2c(c1)C(c1cccc(O)c1)=C(CN(C)C)CC2 [Example 9c, 3-(7-n-butyl-2-dimethylaminomethyl-3,4-dihydronaphth-1-yl)-phenol hydrochloride]",42.2 ± 16

# Test system: μ-receptors
# Assay: not given
# Details: background statement; cited from earlier work
row,Structure (SMILES),selective binding to μ-receptors
1,CN1CC[C@]23c4c5ccc(O)c4O[C@H]2[C@@H](O)C=C[C@H]3[C@H]1C5 [morphine],selectively binds to what are termed μ-receptors
